Test results as given in US9090668B2, “Process for synthesizing cyclic peptide compound” (THE UNIVERSITY OF TOKYO, priority 2007, dated 2015).
*1 amine or outer side, *2 acyl side, *3 side chain or, on linkers, in order; H or OH if unused. Where a SMILES comes first, the peptide text is derived from it. Bridges are numbered along the chain shown (N, C = ends). [ ]: non-standard residue; d: D form. The star is where a group is joined. hMet = CSCCC[C@H](N)C(=O)O; Orn = NCCC[C@H](N)C(=O)O; Dab = NCC[C@H](N)C(=O)O; X1 = O=C(C[*:2])[*:1]; For = O=C*

What was measured:
proteinase K = proteinase K (Parengyodontium album, UniProt P06873); assay: Protease resistance of peptides against proteinase K, analysed by MALDI-MS; format: in vitro ADME; details: 5 μg/ml proteinase K, 37° C., 1 hour
Procedure: Translationally synthesized peptides and purchased Urotensin II peptides were reacted in 5 μg/ml of a proteinase K solution at 37° C. for 1 hour in the presence of, or in the absence of, 1 mM DTT.

Urotensin II receptor = molecular target: T1, Urotensin II receptor (Homo sapiens, UniProt Q9UKP6); assay: Calcium mobilization measurement in HEK-UTR cells (Fluo-4-AM fluorescence); format: cell-based; details: HEK-UTR cells (HEK cells expressing an Urotensin II receptor)
T1 construct: expressed in transfected cells; host or cells: HEK cells (HEK-UTR)
T1 sequence (Q9UKP6 1-389): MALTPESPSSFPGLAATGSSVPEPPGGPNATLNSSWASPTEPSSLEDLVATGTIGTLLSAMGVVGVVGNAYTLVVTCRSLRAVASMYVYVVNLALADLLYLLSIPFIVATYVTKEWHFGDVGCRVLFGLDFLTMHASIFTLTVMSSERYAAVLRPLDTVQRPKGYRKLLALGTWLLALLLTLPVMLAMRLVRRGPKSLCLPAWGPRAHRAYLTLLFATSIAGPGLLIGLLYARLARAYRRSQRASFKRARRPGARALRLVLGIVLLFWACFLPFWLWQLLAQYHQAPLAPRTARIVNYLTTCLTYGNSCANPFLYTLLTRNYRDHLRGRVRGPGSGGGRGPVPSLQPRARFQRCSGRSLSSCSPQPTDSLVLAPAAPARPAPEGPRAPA
Procedure: FIG. 10 illustrates calcium mobilization in cells by addition of peptides using a fluorescent reagent. 2×10^5 HEK-UTR cells (HEK cells expressing an Urotensin II receptor) were seeded into a 96 well plate. After 12-16 hours, the cells were incubated in 1 μM Fluo-4-AM (Dojindo Laboratories) for 1 hour. After the incubation was completed, the fluorescent reagent was removed, and 90 μL of an assay buffer (Hanks Balanced Salts Solution (HBSS), 10 mM HEPES, 200 μM of CaCl2, 0.1% BSA, and 2.5 mM probenecid) was added. Then, 10 μL of peptides dissolved in an assay buffer was added, and changes in an intensity of fluorescent light were measured by a microplate reader. The peptides were prepared by purifying the translation product by Zip-tip (Millipore) and distilling off the elute under reduced pressure.

Chain of proteinase K (P06873 106-384, species assumed): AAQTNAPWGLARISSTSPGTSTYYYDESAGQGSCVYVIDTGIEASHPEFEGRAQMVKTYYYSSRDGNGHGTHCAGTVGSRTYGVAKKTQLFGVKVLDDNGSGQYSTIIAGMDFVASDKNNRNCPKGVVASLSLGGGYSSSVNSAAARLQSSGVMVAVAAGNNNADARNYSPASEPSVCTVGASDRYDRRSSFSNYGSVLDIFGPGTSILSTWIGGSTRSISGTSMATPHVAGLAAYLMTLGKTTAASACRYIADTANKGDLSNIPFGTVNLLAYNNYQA

SMILES | degradation by proteinase K (proteinase K) | degradation by proteinase K after change into linear form by DTT (proteinase K; in the presence of 1 mM DTT) | calcium mobilization in cells (change in fluorescence intensity) (Urotensin II receptor)
CC(C)[C@H](NC(=O)[C@@H]1CSSC[C@H](NC(=O)[C@H](CC(=O)O)NC(=O)[C@@H]2CCCN2C(=O)[C@@H](NC(=O)[C@@H](N)CCC(=O)O)[C@@H](C)O)C(=O)N[C@@H](Cc2ccccc2)C(=O)N[C@@H](Cc2c[nH]c3ccccc23)C(=O)N[C@@H](CCCCN)C(=O)N[C@@H](Cc2ccc(O)cc2)C(=O)N1)C(=O)O [Urotensin II] | not degraded | decomposed | 
CSCCC[C@H](NC=O)C(=O)N1CCC[C@H]1C(=O)N[C@@H](CC(=O)O)C(=O)N[C@H]1CCNC(=O)CSC[C@@H](C(=O)N[C@H](C(=O)O)C(C)C)NC(=O)[C@H](Cc2ccc(O)cc2)NC(=O)[C@H](CCCN)NC(=O)[C@H](Cc2c[nH]c3ccccc23)NC(=O)[C@H](Cc2ccccc2)NC1=O [YS9] (For-[hMet]PD[Dab]FW[Orn]YCV-OH; linker 4-9 via X1) | not degraded |  | calcium mobilization in the cells was observed
CSCC[C@H](NC=O)C(=O)N1CCC[C@H]1C(=O)N[C@@H](CC(=O)O)C(=O)N[C@@H](CC(C)C)C(=O)N[C@@H](Cc1ccccc1)C(=O)N[C@@H](Cc1c[nH]c2ccccc12)C(=O)N[C@@H](CCCCN)C(=O)N[C@@H](Cc1ccc(O)cc1)C(=O)N[C@@H](CS)C(=O)N[C@H](C(=O)O)C(C)C [YS10] (For-MPDLFWKYCV-OH; N-terminus and C-terminus assumed) | degraded |  | 
